Results from Sander's compilation of Henry's law constants.
One block for each molecule: values may come before it.

Experiment: Henry solubility constant Hcp at 298.15 K (mol/(m3 Pa))
[1] = reference: Roberts and Pollien (1997)
[2] = reference: Christie and Crisp (1967)
[3] = reference: Wetlaufer et al. (1964)
[4] = reference: Amoore and Buttery (1978)
[5] = reference: Murphy et al. (1983a)
[6] = reference: Buttery et al. (1971)
[7] = reference: Ashton et al. (1968)
[8] = reference: Fenclová et al. (2010)
[9] = reference: Wen and Muccitelli (1979)
[10] = reference: Chaintreau et al. (1995)
[11] = reference: Butler et al. (1935)

Henry solubility constant Hcp (reference: Ömür-Özbek and Dietrich (2005)): 0.082
SMILES: CCC=CCCC=CC=O [trans-2,cis-6-nonadienal]

Henry solubility constant Hcp [4]: 0.12 | Henry solubility constant Hcp (reference: Kish et al. (2013)): 0.059
SMILES: CC12CCC(CC1)C(C)(C)O2 [1,3,3-trimethyl-2-oxabicyclo[2.2.2]octane]

Henry solubility constant Hcp (reference: Gibbs et al. (1991)): 2700
SMILES: CCCCNC(C)=O [N-butylacetamide]

Henry solubility constant Hcp (reference: Shoor et al. (1969)): 5.5e-06 | Henry solubility constant Hcp [3]: 6.3e-06
SMILES: CC(C)(C)C [dimethylpropane]

Henry solubility constant Hcp (reference: Hovorka et al. (2019)): 0.052
SMILES: CCC(=O)C(C)C [2-methyl-3-pentanone]

Henry solubility constant Hcp [6]: 4
SMILES: CCc1cnccn1 [2-ethylpyrazine]

Henry solubility constant Hcp (reference: Khan et al. (1992)): 25
SMILES: C=C(C)C(=O)O [2-methyl-2-propenoic acid]

Henry solubility constant Hcp [6]: 0.67
SMILES: CCc1nccnc1OC [2-ethyl-3-methoxypyrazine]

Henry solubility constant Hcp (reference: Thomas et al. (1998)): 0.018
SMILES: [O][N+](=O)[O-] [nitrogen trioxide]

Henry solubility constant Hcp (reference: Drouillard et al. (1998)): 0.16
SMILES: ClCC(Cl)CCCCCCCC(Cl)CCl (centres undefined) [1,2,10,11-tetrachloroundecane]

Henry solubility constant Hcp [6]: 0.2
SMILES: COc1nccnc1CC(C)C [2-isobutyl-3-methoxypyrazine]

Henry solubility constant Hcp [1]: 0.058
SMILES: CCCCCC/C=C/C=O [(E)-2-nonenal]

Henry solubility constant Hcp (reference: Karl et al. (2008)): 50
SMILES: CC/C=C/C[C@@H]1C(=O)CC[C@H]1CC(=O)OC [methyl jasmonate]

Henry solubility constant Hcp (reference: Rochester and Symonds (1973)): 0.45
SMILES: CC(O)C(F)(F)F (centres undefined) [1,1,1-trifluoro-2-propanol]

Henry solubility constant Hcp (reference: Buttery et al. (1965)): 0.071
SMILES: CCCCCCCCC=O [nonanal]

Henry solubility constant Hcp (reference: Sanz and Gmehling (2005)): 9.1
SMILES: COC(=O)C(C)O (centres undefined) [methyl 2-hydroxypropanoate]

Henry solubility constant Hcp [10]: 0.98
SMILES: Cc1cncc(C)n1 [2,6-dimethylpyrazine]

Henry solubility constant Hcp (reference: Inga and McKetta (1961)): 0.00062 | Henry solubility constant Hcp (reference: Simpson and Lovell (1962)): 0.00077
SMILES: C#CC [propyne]

Henry solubility constant Hcp (reference: Jönsson et al. (1982)): 4.2e-06 | Henry solubility constant Hcp (reference: Park et al. (1997)): 5.5e-06
SMILES: CCCCCCC [heptane]

Henry solubility constant Hcp [11]: 0.67 | Henry solubility constant Hcp [8]: 0.71
SMILES: CCCC(C)O (centres undefined) [2-pentanol]

Henry solubility constant Hcp (reference: Dohányosová et al. (2004)): 0.00021
SMILES: C1=C\CCCCCC/1 [cyclooctene]

Henry solubility constant Hcp [10]: 0.42
SMILES: Cc1cccnc1 [3-methylpyridine]

More lines, now with the values behind:

SMILES: C=CC(O)CCCCC (centres undefined) [1-octen-3-ol]
Henry solubility constant Hcp (reference: Druaux et al. (1998)): 0.25 | Henry solubility constant Hcp [1]: 0.13 | Henry solubility constant Hcp (reference: Wu et al. (2022a)): 0.19

SMILES: FC(Cl)C(F)(F)F (centres undefined) [1-chloro-1,2,2,2-tetrafluoroethane]
Henry solubility constant Hcp (reference: Kutsuna (2013)): 0.00011 | Henry solubility constant Hcp (reference: Maaßen (1995)): 0.0001 | Henry solubility constant Hcp (reference: Reichl (1995)): 0.00011

SMILES: c1ccc2c(c1)[nH]c1ccccc12 [carbazole]
Henry solubility constant Hcp (reference: Odabasi et al. (2006)): 93

SMILES: CCCNCCC [dipropylamine]
Henry solubility constant Hcp [2]: 0.19 | Henry solubility constant Hcp (reference: Leng et al. (2015a)): 0.12

SMILES: Cc1cc(C)c(N)cc1C [2,4,5-trimethylbenzenamine]
Henry solubility constant Hcp (reference: Jayasinghe et al. (1992)): 3.9

SMILES: CC(C)C [2-methylpropane]
Henry solubility constant Hcp (reference: McAuliffe (1963)): 8.5e-06 | Henry solubility constant Hcp (reference: Mohebbi et al. (2012)): 0.00011 | Henry solubility constant Hcp [3]: 9.9e-06

SMILES: CCCCN [1-butanamine]
Henry solubility constant Hcp (reference: Butler and Ramchandani (1935)): 0.65 | Henry solubility constant Hcp [2]: 0.56

SMILES: CCCCOCCOCCO [3,6-dioxa-1-decanol]
Henry solubility constant Hcp (reference: Kim et al. (2000)): 1400

SMILES: O=C(O)C(Br)Br [dibromoethanoic acid]
Henry solubility constant Hcp (reference: Bowden et al. (1998a)): 2200

SMILES: Clc1ccccc1-c1ccccc1 [2-chlorobiphenyl]
Henry solubility constant Hcp (reference: Charles and Destaillats (2005)): 0.03

SMILES: Clc1ccc(-c2cc(Cl)ccc2Cl)c(Cl)c1 [2,2',4,5'-tetrachlorobiphenyl]
Henry solubility constant Hcp [5]: 0.049

SMILES: Clc1cc(Cl)c2c(c1Cl)Oc1ccccc1O2 [1,2,4-trichlorodibenzo-p-dioxin]
Henry solubility constant Hcp (reference: Santl et al. (1994)): 0.27

SMILES: FN(F)F [nitrogen trifluoride]
Henry solubility constant Hcp [7]: 7.8e-06 | Henry solubility constant Hcp (reference: Dean et al. (1973)): 7.7e-06

SMILES: COc1cc(CCC(C)=O)cc(OC)c1O [syringylacetone]
Henry solubility constant Hcp (reference: McFall et al. (2020)): 1.2e+06

SMILES: CC(C)CCO [3-methyl-1-butanol]
Henry solubility constant Hcp (reference: Ammari and Schroen (2019)): 0.67 | Henry solubility constant Hcp [8]: 0.82

SMILES: CNC(C)=O [N-methylacetamide]
Henry solubility constant Hcp (reference: Bernauer and Dohnal (2008)): 3200

SMILES: ClC1=C(Cl)[C@]2(Cl)[C@@H]3[C@@H](Cl)[C@@H](Cl)C[C@@H]3[C@@]1(Cl)C2(Cl)Cl [cis-chlordane]
Henry solubility constant Hcp (reference: Jantunen and Bidleman (2006)): 0.037

SMILES: O=C(O)C(F)(F)C(F)(F)F [perfluoropropanoic acid]
Henry solubility constant Hcp (reference: Kwan (2001)): 8.8

SMILES: CCCCOC(C)=O [butyl ethanoate]
Henry solubility constant Hcp (reference: Fenclová et al. (2014)): 0.035 | Henry solubility constant Hcp (reference: Ioffe et al. (1984)): 0.035 | Henry solubility constant Hcp (reference: Kieckbusch and King (1979b)): 0.035

SMILES: FC(F)(F)C(F)(F)F [hexafluoroethane]
Henry solubility constant Hcp (reference: Bonifácio et al. (2001)): 6.5e-07 | Henry solubility constant Hcp (reference: Park et al. (1982)): 5.3e-07 | Henry solubility constant Hcp [9]: 5.6e-07

SMILES: Clc1cc2oc3cc(Cl)c(Cl)cc3c2cc1Cl [2,3,7,8-tetrachlorodibenzofuran]
Henry solubility constant Hcp (reference: Friesen et al. (1993)): 0.59

SMILES: FC(F)=C(F)C(F)(F)F [hexafluoropropene]
Henry solubility constant Hcp (reference: Maaßen (1995)): 6.8e-06

SMILES: CNC(=O)Oc1cccc2c1OC(C)(C)C2 [carbofuran]
Henry solubility constant Hcp (reference: Mabury and Crosby (1996)): > 99

SMILES: CCCS [1-propanethiol]
Henry solubility constant Hcp (reference: Coquelet and Richon (2005)): 0.0017 | Henry solubility constant Hcp (reference: Haimi et al. (2006)): 0.0018

SMILES: O=NCl [nitrosyl chloride]
Henry solubility constant Hcp (reference: Scheer et al. (1997)): > 0.00049

SMILES: O=C=C=C=O [carbon suboxide]
Henry solubility constant Hcp (reference: Keßel et al. (2017)): 0.011

SMILES: CCc1cccc2ccccc12 [1-ethylnaphthalene]
Henry solubility constant Hcp (reference: Schwarz and Wasik (1977)): 0.022

SMILES: CC(C)COC(=O)C(C)C [2-methylpropyl 2-methylpropanoate]
Henry solubility constant Hcp [4]: 0.01

SMILES: CCC(C)CO (centres undefined) [2-methyl-1-butanol]
Henry solubility constant Hcp [11]: 0.7 | Henry solubility constant Hcp [8]: 0.78

SMILES: Clc1cccc(-c2ccc(Cl)cc2Cl)c1 [2,3',4-trichlorobiphenyl]
Henry solubility constant Hcp [5]: 0.062

SMILES: CCCN(CCC)C(=O)SCC [S-ethyl dipropylthiocarbamate]
Henry solubility constant Hcp (reference: Breiter et al. (1998)): 0.038 | Henry solubility constant Hcp (reference: Reyes-Pérez et al. (2008)): 0.56

SMILES: Clc1cc(Cl)c(Cl)cc1Cl [1,2,4,5-tetrachlorobenzene]
Henry solubility constant Hcp (reference: McPhedran et al. (2013)): 0.018

SMILES: CC(C)(N)CO [2-amino-2-methyl-1-propanol]
Henry solubility constant Hcp (reference: Nguyen (2013)): 700

SMILES: Clc1ccc(Cl)c(-c2cccc(Cl)c2Cl)c1 [2,2',3,5'-tetrachlorobiphenyl]
Henry solubility constant Hcp [5]: 0.041

SMILES: FC(F)(F)F [tetrafluoromethane]
Henry solubility constant Hcp [7]: 2.1e-06 | Henry solubility constant Hcp (reference: Cosgrove and Walkley (1981)): 2.1e-06 | Henry solubility constant Hcp (reference: Morrison and Johnstone (1954)): 2e-06 | Henry solubility constant Hcp (reference: Park et al. (1982)): 2.1e-06 | Henry solubility constant Hcp (reference: Reichl (1995)): 2e-06 | Henry solubility constant Hcp (reference: Scharlin and Battino (1994)): 2.1e-06 | Henry solubility constant Hcp (reference: Scharlin and Battino (1995)): 2.1e-06 | Henry solubility constant Hcp [9]: 2e-06

SMILES: Clc1ccc(-c2cc(Cl)c(Cl)c(Cl)c2Cl)cc1Cl [2,3,3',4,4',5-hexachlorobiphenyl]
Henry solubility constant Hcp [5]: 0.011

SMILES: COP(=S)(OC)Oc1ccc([N+](=O)[O-])c(C)c1 [fenitrothion]
Henry solubility constant Hcp (reference: Metcalfe et al. (1980)): 11

SMILES: CN(CCO)CCO [N-methyldiethanolamine]
Henry solubility constant Hcp (reference: Kim et al. (2008)): 400000 | Henry solubility constant Hcp (reference: Nguyen (2013)): 3900

SMILES: Brc1c(Br)c(Br)c(Oc2c(Br)c(Br)c(Br)c(Br)c2Br)c(Br)c1Br [decabromodiphenyl ether]
Henry solubility constant Hcp (reference: Cetin and Odabasi (2005)): 18 | Henry solubility constant Hcp (reference: Long et al. (2017)): 18

SMILES: Clc1ccccc1-c1c(Cl)cccc1Cl [2,2',6-trichlorobiphenyl]
Henry solubility constant Hcp [5]: 0.047

SMILES: CC1CNCCN1 (centres undefined) [2-methylpiperazine]
Henry solubility constant Hcp (reference: Nguyen (2013)): 5000
